Source: patent US9708334B2, “Substituted 2,4,5,6-tetrahydropyrrolo[3,4-c]pyrazole and 4,5,6,7-tetrahydro-2H-pyrazolo[4,3-c]pyridine compounds as GlyT1 inhibitors” (DART NEUROSCIENCE (CAYMAN) LTD., priority 2014, dated 2017)

Molecular target: T1, GlyT1 (Homo sapiens, UniProt P48067)
T1 construct: expressed in transfected cells
T1 sequence (P48067 1-706): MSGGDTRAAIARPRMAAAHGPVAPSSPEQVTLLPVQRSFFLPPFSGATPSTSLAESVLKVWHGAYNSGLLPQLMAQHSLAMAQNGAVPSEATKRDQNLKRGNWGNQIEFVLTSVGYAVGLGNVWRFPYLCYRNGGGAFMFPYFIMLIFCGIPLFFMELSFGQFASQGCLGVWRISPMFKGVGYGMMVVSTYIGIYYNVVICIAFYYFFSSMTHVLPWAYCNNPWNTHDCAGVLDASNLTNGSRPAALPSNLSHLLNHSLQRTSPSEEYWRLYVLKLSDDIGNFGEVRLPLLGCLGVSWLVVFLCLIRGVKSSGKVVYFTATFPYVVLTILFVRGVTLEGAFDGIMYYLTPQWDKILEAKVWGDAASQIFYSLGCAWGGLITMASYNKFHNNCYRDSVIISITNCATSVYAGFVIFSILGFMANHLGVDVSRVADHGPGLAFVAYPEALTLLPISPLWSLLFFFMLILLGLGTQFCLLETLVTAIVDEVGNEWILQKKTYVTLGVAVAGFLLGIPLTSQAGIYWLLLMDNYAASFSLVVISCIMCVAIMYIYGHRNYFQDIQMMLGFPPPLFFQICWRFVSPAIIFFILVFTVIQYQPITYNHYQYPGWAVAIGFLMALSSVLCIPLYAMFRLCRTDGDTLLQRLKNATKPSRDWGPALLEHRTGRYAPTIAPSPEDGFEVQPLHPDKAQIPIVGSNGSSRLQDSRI
Experiment: Glycine Transporter 1 (GlyT1) uptake assay, scintillation proximity assay of [14C]-glycine uptake
Assay type: cell-based
Details: SPA, four parameter logistic fit, read-out: GlyT1 (pIC50) (converted)
Protocol: Glycine Transporter 1 (GlyT1) Uptake Assay
Plates were then read on a MicroBeta plate counter (Perkin Elmer). Dose-response data for tested compounds were analyzed and curves were fit using a four parameter logistic fit to determine IC50 values. […]

Structure (SMILES)	IC50
Cc1cc(-n2cc3c(n2)CN(C(=O)c2c(O[C@@H](C)C(F)(F)F)ccc(C#N)c2Cl)C3)ccn1 [Example 17, 2-Chloro-3-[2-(2-methylpyridin-4-yl)-2H 4H 5H 6H-pyrrolo[3,4-c]pyrazole-5-carbonyl]-4-{[(2S)-1 1 1-trifluoropropan-2-yl]oxy}benzonitrile]	< 100 nM
CS(=O)(=O)c1ccc(OCC(F)(F)F)c(C(=O)N2Cc3cn(-c4ccccc4)nc3C2)c1 [Example 102, 5-[5-Methanesulfonyl-2-(2 2 2-trifluoroethoxy)benzoyl]-2-phenyl-2H 4H 5H 6H-pyrrolo[3,4-c]pyrazole]	< 100 nM
CS(=O)(=O)c1ccc(-c2cccc(F)c2)c(C(=O)N2Cc3cn(CC4CC4(F)F)nc3C2)c1 (centres unmarked) [Example 453, 2-[(2 2-Difluorocyclopropyl)methyl]-5-[2-(3-fluorophenyl)-5-methanesulfonylbenzoyl]-2H 4H 5H 6H-pyrrolo[3,4-c]pyrazole]	< 100 nM
C[C@H](Oc1ccc(C#N)cc1C(=O)N1Cc2cnn(CC3CCOCC3)c2C1)C(F)(F)F [Example 394, 3-[1-(Oxan-4-ylmethyl)-1H 4H 5H 6H-pyrrolo[3,4-c]pyrazole-5-carbonyl]-4-{[(2S)-1 1 1-trifluoropropan-2-yl]oxy}benzonitrile]	1000 to 10000 nM
CCS(=O)(=O)c1ccc(O[C@@H](C)C(F)(F)F)c(C(=O)N2Cc3cn(-c4cc(F)ccc4F)nc3C2)c1 [Example 125, 2-(2 5-Difluorophenyl)-5-[5-(ethanesulfonyl)-2-{[(2S)-1 1 1-trifluoropropan-2-yl]oxy}benzoyl]-2H 4H 5H 6H-pyrrolo[3,4-c]pyrazole]	< 100 nM
N#Cc1ccc(OCC2CC2)c(C(=O)N2Cc3cn(-c4ccc(F)cc4)nc3C2)c1 [Example 531, 4-(Cyclopropylmethoxy)-3-[2-(4-fluorophenyl)-2H 4H 5H 6H-pyrrolo[3,4-c]pyrazole-5-carbonyl]benzonitrile]	100 to 1000 nM
C[C@H](Oc1ccc(C#N)c(Cl)c1C(=O)N1Cc2cn(-c3ccccn3)nc2C1)C(F)(F)F [Example 264]	< 100 nM
CC(C)S(=O)(=O)c1ccc(O[C@@H](C)C(F)(F)F)c(C(=O)N2Cc3cn(-c4ccc(F)c(F)c4)nc3C2)c1 [Example 92, 2-(3 4-Difluorophenyl)-5-[5-(propane-2-sulfonyl)-2-{[(2S)-1 1 1-trifluoropropan-2-yl]oxy}benzoyl]-2H 4H 5H 6H-pyrrolo[3,4-c]pyrazole]	100 to 1000 nM
CS(=O)(=O)c1ccc(C2CCCC2)c(C(=O)N2Cc3cn(-c4ccc(F)cc4)nc3C2)c1 [Example 350, 5-(2-Cyclopentyl-5-methanesulfonylbenzoyl)-2-(4-fluorophenyl)-2H 4H 5H 6H-pyrrolo[3,4-c]pyrazole]	< 100 nM
Cc1cccc(-n2cc3c(n2)CN(C(=O)c2cc(S(C)(=O)=O)ccc2OC(C)C)C3)c1 [Example 85, 5-[5-Methanesulfonyl-2-(propan-2-yloxy)benzoyl]-2-(3-methylphenyl)-2H 4H 5H 6H-pyrrolo[3,4-c]pyrazole]	< 100 nM
CS(=O)(=O)c1ccc(N2CCCCC2)c(C(=O)N2CCc3c(c(C(F)(F)F)nn3-c3ccccc3)C2)c1 [Example 165, 1-{4-Methanesulfonyl-2-[1-phenyl-3-(trifluoromethyl)-1H 4H 5H 6H 7H-pyrazolo[4,3-c]pyridine-5-carbonyl]phenyl}piperidine]	1000 to 10000 nM
C[C@H](Oc1ccc(C#N)cc1C(=O)N1Cc2cn(-c3ccc(F)cc3F)nc2C1)C(F)(F)F [Example 391, 3-[2-(2 4-Difluorophenyl)-2H 4H 5H 6H-pyrrolo[3,4-c]pyrazole-5-carbonyl]-4-{[(2S)-1 1 1-trifluoropropan-2-yl]oxy}benzonitrile]	100 to 1000 nM
CC1(COc2ccc(S(C)(=O)=O)cc2C(=O)N2Cc3cn(-c4ccccc4F)nc3C2)COC1 [Example 436, 2-(2-Fluorophenyl)-5-{5-methanesulfonyl-2-[(3-methyloxetan-3-yl)methoxy]benzoyl}-2H 4H 5H 6H-pyrrolo[3,4-c]pyrazole]	100 to 1000 nM
C[C@H](Oc1ccc(C#N)c(Cl)c1C(=O)N1Cc2cn(-c3ccc(C(F)(F)F)cn3)nc2C1)C(F)(F)F [Example 286]	100 to 1000 nM
